Laboratory results reported in ChEMBL document CHEMBL4052779, “Isosorbide-based peptidomimetics as inhibitors of hepatitis C virus serine protease” (Bioorg Med Chem Lett, 2017).

How the values were obtained:
[1] = Solubility of the compound in aqueous buffer; format: physicochemical
Hepacivirus hominis [2] = assay: Inhibition of recombinant HCV NS3/4A protease V170A mutant assessed as residual enzyme activity at 100 uM pre-incubated for 10 mins followed by 5-FAM/QXL520 substrate addition and measured after 60 mins by FRET analysis relative to control
[3] = test system: Hepatitis C virus serine protease, NS3/NS4A (Hepatitis C virus), D2K2A8+A3EZI9 [D168A]; assay: Inhibition of recombinant HCV NS3/4A protease D168A mutant assessed as residual enzyme activity at 100 uM pre-incubated for 10 mins followed by 5-FAM/QXL520 substrate addition and measured after 60 mins by FRET analysis relative to control; conditions: Hepacivirus hominis
[4] = Inhibition of recombinant HCV NS3/4A protease pre-incubated for 10 mins followed by 5-FAM/QXL520 substrate addition and measured after 60 mins by FRET analysis relative to control; set-up: species or system Hepacivirus hominis
Hepacivirus hominis [5] = assay: Inhibition of recombinant wild type HCV NS3/4A protease assessed as residual enzyme activity at 100 uM pre-incubated for 10 mins followed by 5-FAM/QXL520 substrate addition and measured after 60 mins by FRET analysis relative to control
Hepacivirus hominis [6] = assay: Inhibition of recombinant HCV NS3/4A protease at 100 uM pre-incubated for 10 mins followed by 5-FAM/QXL520 substrate addition and measured after 60 mins by FRET analysis relative to control

Compound: C[C@@H](O)[C@H](NC(=O)OC(C)(C)C)C(=O)N[C@H]1CO[C@H]2[C@@H]1OC[C@@H]2OCc1ccccc1
- solubility [1]: Insoluble

Compound: CC(C)(C)OC(=O)N[C@@H](Cc1c[nH]c2ccccc12)C(=O)N[C@H]1CO[C@H]2[C@@H]1OC[C@@H]2OCc1ccccc1
- solubility [1]: Insoluble

Compound: COc1ccc(CO[C@H]2CO[C@H]3[C@@H]2OC[C@@H]3NC(=O)/C(=C/c2cccs2)NC(=O)c2ccccc2)cc1
- solubility [1]: Insoluble

Compound: CC(C)(C)OC(=O)N1CCC[C@H]1C(=O)N[C@H]1CO[C@H]2[C@@H]1OC[C@@H]2OCc1ccccc1
- solubility [1]: Insoluble

Compound: O=C(N[C@H]1CO[C@H]2[C@@H]1OC[C@@H]2OCc1ccccc1)/C(=C/c1ccco1)NC(=O)c1ccccc1
- Activity (Hepacivirus hominis [2]): 6.7%
- Activity [3]: 36.7%
- solubility [1]: Soluble
- IC50 [4]: 36 µM
- Activity (Hepacivirus hominis [5]): 18.2%
- inhibition (Hepacivirus hominis [6]): 81.8%

Compound: O=C(N[C@@H]1CO[C@H]2[C@@H]1OC[C@H]2OCc1ccccc1)/C(=C/c1cccs1)NC(=O)c1ccccc1
- solubility [1]: Insoluble
- inhibition (Hepacivirus hominis [6]): 45%

Compound: O=C(N[C@H]1CO[C@H]2[C@@H]1OC[C@@H]2OCc1ccccc1)/C(=C/c1cc2ccccc2s1)NC(=O)c1ccccc1
- solubility [1]: Soluble
- inhibition (Hepacivirus hominis [6]): 30.3%

Compound: CC(C)(C)OC(=O)N[C@@H](CCCN/C(=N\C(=O)OCc1ccccc1)NC(=O)OCc1ccccc1)C(=O)N[C@H]1CO[C@H]2[C@@H]1OC[C@@H]2OCc1ccccc1
- solubility [1]: Insoluble
